{"source": "patent US12077503B2", "about": "“Substituted cyclic amides and their use as herbicides” (FMC CORPORATION, priority 2015, dated 2024)", "format_in_all_cases": "in vivo", "key": {"rice (Oryra sativa)": {"system": "rice (Oryra sativa)", "test": "Test B flooded paddy test", "details": "Flood, 250 g ai/ha, scale of 0 to 100 where 0 is no effect and 100 is complete control", "summary_of_the_method": "(§1)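 Evaluation by eye, against controls, occurred 13–15 d post-treatment in a greenhouse, using a 0 (no effect) to 100 (complete control) scale. Application was into the paddy water, 3 cm deep over the soil, on 2-leaf plants.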"}, "[1]": {"system": "barnyardgrass (Echinochloa crus-galli)", "test": "Test B flooded paddy test", "details": "Flood, 250 g ai/ha, scale of 0 to 100 where 0 is no effect and 100 is complete control", "summary_of_the_method": "as §1"}, "[2]": {"system": "ducksalad (Heteranthera limosa)", "test": "Test B flooded paddy test", "details": "Flood, 250 g ai/ha; scale of 0 to 100 where 0 is no effect and 100 is complete control", "summary_of_the_method": "as §1"}, "[3]": {"system": "sedge, umbrella (small-flower umbrella sedge, Cyperus difformis)", "test": "Test B flooded paddy test", "details": "250 g ai/ha, Flood, 0 to 100 scale where 0 is no effect and 100 is complete control", "summary_of_the_method": "as §1"}, "[4]": {"system": "Galium (catchweed bedstraw, Galium aparine)", "test": "Test A postemergence", "details": "125 g ai/ha, Postemergence, visual injury after approximately 10 d, 0 to 100 scale where 0 is no effect and 100 is complete control", "summary_of_the_method": "(§2)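 Seeded soil received test chemicals as a preemergence directed spray, and seedlings at one to two leaves, 2–10 cm tall, received them postemergence, in a non-phytotoxic, surfactant-containing solvent mixture. Pots were held in a greenhouse for approximately 10 d, then rated for injury from 0, no effect, to 100, complete control.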"}, "[5]": {"system": "ragweed (common ragweed, Ambrosia elatior)", "test": "Test A postemergence", "details": "125 g ai/ha, Postemergence, visual injury after approximately 10 d, 0 to 100 scale where 0 is no effect and 100 is complete control", "summary_of_the_method": "as §2"}, "[6]": {"system": "ryegrass, Italian (Italian ryegrass, Lolium multiflorum)", "test": "Test A postemergence", "details": "125 g ai/ha, Postemergence; visual injury after approximately 10 d; 0 to 100 scale where 0 is no effect and 100 is complete control", "summary_of_the_method": "as §2"}, "[7]": {"system": "pigweed (Amaranthus retroflexus)", "test": "Test A postemergence", "details": "125 g ai/ha, Postemergence, visual injury after approximately 10 d, 0 to 100 scale where 0 is no effect and 100 is complete control", "summary_of_the_method": "as §2"}, "[8]": {"system": "barnyardgrass (Echinochloa crus-galli)", "test": "Test A postemergence", "details": "125 g ai/ha, Postemergence, visual injury after approximately 10 d, 0 to 100 scale where 0 is no effect and 100 is complete control", "summary_of_the_method": "as §2"}, "corn (Zea mays)": {"system": "corn (Zea mays)", "test": "Test A postemergence", "details": "125 g ai/ha, Postemergence; visual injury after approximately 10 d; 0 to 100 scale where 0 is no effect and 100 is complete control", "summary_of_the_method": "as §2"}, "[9]": {"system": "wheat (Triticum aestivum)", "test": "Test A postemergence", "details": "125 g ai/ha, Postemergence; visual injury after approximately 10 d; 0 to 100 scale where 0 is no effect and 100 is complete control", "summary_of_the_method": "as §2"}, "[10]": {"system": "blackgrass (Alopecurus myosuroides)", "test": "Test A postemergence", "details": "125 g ai/ha, Postemergence; visual injury after approximately 10 d; 0 to 100 scale where 0 is no effect and 100 is complete control", "summary_of_the_method": "as §2"}, "Kochia (Kochia scoparia) [11]": {"system": "Kochia (Kochia scoparia)", "test": "Test A postemergence", "details": "125 g ai/ha, Postemergence; visual injury after approximately 10 d; 0 to 100 scale where 0 is no effect and 100 is complete control", "summary_of_the_method": "as §2"}, "[12]": {"system": "giant foxtail (Setaria faberii)", "test": "Test A postemergence", "details": "125 g ai/ha, Postemergence, visual injury after approximately 10 d, 0 to 100 scale where 0 is no effect and 100 is complete control", "summary_of_the_method": "as §2"}, "[13]": {"system": "ragweed (common ragweed, Ambrosia elatior)", "test": "Test A preemergence", "details": "for Ragweed plant response rating (0 to 100 scale, 0 is no effect, 100 is complete control): 125 g ai/ha, Preemergence, visual injury rating after approximately 10 d; for Ragweed plant response rating: 500 g ai/ha, preemergence, visual injury rating about 10 d after treatment, 0 to 100 scale (0 no effect, 100 complete control)", "summary_of_the_method": "as §2"}, "[14]": {"system": "ryegrass, Italian (Italian ryegrass, Lolium multiflorum)", "test": "Test A preemergence", "summary_of_the_method": "as §2"}, "[15]": {"system": "pigweed (Amaranthus retroflexus)", "test": "Test A preemergence", "details": "for Pigweed plant response rating (0 to 100 scale, 0 is no effect, 100 is complete control): 125 g ai/ha, Preemergence, visual injury rating after approximately 10 d"}, "[16]": {"system": "barnyardgrass (Echinochloa crus-galli)", "test": "Test A preemergence", "details": "for Barnyardgrass plant response rating (0 to 100 scale, 0 is no effect, 100 is complete control): 125 g ai/ha, Preemergence, visual injury rating after approximately 10 d", "summary_of_the_method": "as §2"}, "Kochia (Kochia scoparia) [17]": {"system": "Kochia (Kochia scoparia)", "test": "Test A preemergence", "details": "for Kochia plant response rating (0 to 100 scale, 0 is no effect, 100 is complete control): 125 g ai/ha, Preemergence, visual injury rating after approximately 10 d", "summary_of_the_method": "as §2"}, "[18]": {"system": "giant foxtail (Setaria faberii)", "test": "Test A preemergence", "summary_of_the_method": "as §2"}, "[19]": {"details": "125 g ai/ha, Preemergence, visual injury rating after approximately 10 d"}, "[20]": {"details": "500 g ai/ha, preemergence, visual injury rating about 10 d after treatment, 0 to 100 scale (0 no effect, 100 complete control)"}}}
{"molecule": "Cc1ccc([C@H]2CN(C)C(=O)[C@@H]2C(=O)Nc2ccccc2[S+](C)[O-])cc1F", "note": "(single isomer, unassigned) [Compound 987]", "values": [{"measurement": "pest or weed control at 250 g/ha", "setting": "rice (Oryra sativa); Oryza sativa, read-out: Rice plant response rating", "value": 35, "unit": "%"}, {"measurement": "pest or weed control at 250 g/ha", "setting": "[1]; Echinochloa crus-galli, read-out: Barnyardgrass plant response rating", "value": 90, "unit": "%"}, {"measurement": "Ducksalad plant response rating", "setting": "[2]", "value": 75}, {"measurement": "pest or weed control at 250 g/ha", "setting": "[3]; Cyperus difformis, read-out: Sedge, Umbrella plant response rating", "value": 0, "unit": "%"}, {"measurement": "pest or weed control at 125 g/ha", "setting": "[4]; Galium, post-emergence, 240 h, read-out: Plant response rating, Galium", "value": 40, "unit": "%"}, {"measurement": "pest or weed control at 125 g/ha", "setting": "[5]; Ambrosia artemisiifolia, post-emergence, 240 h, read-out: Plant response rating, Ragweed", "value": 0, "unit": "%"}, {"measurement": "Plant response rating, Ryegrass, Italian", "setting": "[6]", "value": 0}, {"measurement": "pest or weed control at 125 g/ha", "setting": "[7]; Amaranthus retroflexus, post-emergence, 240 h, read-out: Plant response rating, Pigweed", "value": 0, "unit": "%"}, {"measurement": "pest or weed control at 125 g/ha", "setting": "[8]; Echinochloa crus-galli, post-emergence, 240 h, read-out: Plant response rating, Barnyardgrass", "value": 80, "unit": "%"}, {"measurement": "Plant response rating, Corn", "setting": "corn (Zea mays)", "value": 0}, {"measurement": "Plant response rating, Wheat", "setting": "[9]", "value": 0}, {"measurement": "Plant response rating, Blackgrass", "setting": "[10]", "value": 0}, {"measurement": "Plant response rating, Kochia", "setting": "Kochia (Kochia scoparia) [11]", "value": 0}, {"measurement": "pest or weed control at 125 g/ha", "setting": "[12]; Setaria faberi, post-emergence, 240 h, read-out: Plant response rating, Foxtail, Giant", "value": 60, "unit": "%"}, {"measurement": "Ragweed plant response rating (0 to 100 scale, 0 is no effect, 100 is complete control)", "setting": "[13]", "value": 0}, {"measurement": "Ragweed plant response rating", "setting": "[13]", "value": 0}, {"measurement": "pest or weed control at 125 g/ha", "setting": "[14]; Lolium multiflorum, pre-emergence, 240 h, 125 g ai/ha, Preemergence, visual injury rating after approximately 10 d, read-out: Ryegrass, Italian plant response rating (0 to 100 scale, 0 is no effect, 100 is complete control)", "value": 0, "unit": "%"}, {"measurement": "pest or weed control at 500 g/ha", "setting": "[14]; Lolium multiflorum, pre-emergence, 240 h, 500 g ai/ha, preemergence, visual injury rating about 10 d after treatment, 0 to 100 scale (0 no effect, 100 complete control), read-out: Ryegrass, Italian plant response rating", "value": 40, "unit": "%"}, {"measurement": "Pigweed plant response rating (0 to 100 scale, 0 is no effect, 100 is complete control)", "setting": "[15]", "value": 0}, {"measurement": "pest or weed control at 500 g/ha", "setting": "[15]; Amaranthus retroflexus, pre-emergence, 240 h, 500 g ai/ha, preemergence, visual injury rating about 10 d after treatment, 0 to 100 scale (0 no effect, 100 complete control), read-out: Pigweed plant response rating", "value": 20, "unit": "%"}, {"measurement": "Barnyardgrass plant response rating (0 to 100 scale, 0 is no effect, 100 is complete control)", "setting": "[16]", "value": 60}, {"measurement": "pest or weed control at 500 g/ha", "setting": "[16]; Echinochloa crus-galli, pre-emergence, 240 h, 500 g ai/ha, preemergence, visual injury rating about 10 d after treatment, 0 to 100 scale (0 no effect, 100 complete control), read-out: Barnyardgrass plant response rating", "value": 90, "unit": "%"}, {"measurement": "Kochia plant response rating (0 to 100 scale, 0 is no effect, 100 is complete control)", "setting": "Kochia (Kochia scoparia) [17]", "value": 0}, {"measurement": "pest or weed control at 500 g/ha", "setting": "Kochia (Kochia scoparia) [17]; Bassia scoparia, pre-emergence, 240 h, 500 g ai/ha, preemergence, visual injury rating about 10 d after treatment, 0 to 100 scale (0 no effect, 100 complete control), read-out: Kochia plant response rating", "value": 60, "unit": "%"}, {"measurement": "pest or weed control at 125 g/ha", "setting": "[18]; Setaria faberi, pre-emergence, 240 h, 125 g ai/ha, Preemergence, visual injury rating after approximately 10 d, read-out: Foxtail, Giant plant response rating (0 to 100 scale, 0 is no effect, 100 is complete control)", "value": 90, "unit": "%"}, {"measurement": "pest or weed control at 500 g/ha", "setting": "[18]; Setaria faberi, pre-emergence, 240 h, 500 g ai/ha, preemergence, visual injury rating about 10 d after treatment, 0 to 100 scale (0 no effect, 100 complete control), read-out: Foxtail, Giant plant response rating", "value": 90, "unit": "%"}]}
{"molecule": "Cc1c(F)cccc1NC(=O)[C@H]1C(=O)NC[C@@H]1c1ccc2c(c1)OCO2", "note": "(stereo in doubt) [Compound 989]", "values": [{"measurement": "Rice plant response rating", "setting": "rice (Oryra sativa)", "value": 0}, {"measurement": "Barnyardgrass plant response rating", "setting": "[1]", "value": 15}, {"measurement": "Ducksalad plant response rating", "setting": "[2]", "value": 100}, {"measurement": "Sedge, Umbrella plant response rating", "setting": "[3]", "value": 0}, {"measurement": "Plant response rating, Galium", "setting": "[4]", "value": 20}, {"measurement": "Plant response rating, Ragweed", "setting": "[5]", "value": 0}, {"measurement": "Plant response rating, Ryegrass, Italian", "setting": "[6]", "value": 0}, {"measurement": "Plant response rating, Pigweed", "setting": "[7]", "value": 0}, {"measurement": "Plant response rating, Barnyardgrass", "setting": "[8]", "value": 80}, {"measurement": "Plant response rating, Corn", "setting": "corn (Zea mays)", "value": 0}, {"measurement": "Plant response rating, Wheat", "setting": "[9]", "value": 0}, {"measurement": "Plant response rating, Blackgrass", "setting": "[10]", "value": 0}, {"measurement": "Plant response rating, Kochia", "setting": "Kochia (Kochia scoparia) [11]", "value": 0}, {"measurement": "Plant response rating, Foxtail, Giant", "setting": "[12]", "value": 50}, {"measurement": "Ragweed plant response rating (0 to 100 scale, 0 is no effect, 100 is complete control)", "setting": "[13]", "value": 0}, {"measurement": "Ragweed plant response rating", "setting": "[13]", "value": 40}, {"measurement": "Ryegrass, Italian plant response rating (0 to 100 scale, 0 is no effect, 100 is complete control)", "setting": "[14]; [19]", "value": 0}, {"measurement": "Ryegrass, Italian plant response rating", "setting": "[14]; [20]", "value": 0}, {"measurement": "Pigweed plant response rating (0 to 100 scale, 0 is no effect, 100 is complete control)", "setting": "[15]", "value": 0}, {"measurement": "Pigweed plant response rating", "setting": "[15]; [20]", "value": 0}, {"measurement": "Barnyardgrass plant response rating (0 to 100 scale, 0 is no effect, 100 is complete control)", "setting": "[16]", "value": 70}, {"measurement": "Barnyardgrass plant response rating", "setting": "[16]; [20]", "value": 90}, {"measurement": "Kochia plant response rating (0 to 100 scale, 0 is no effect, 100 is complete control)", "setting": "Kochia (Kochia scoparia) [17]", "value": 0}, {"measurement": "Kochia plant response rating", "setting": "Kochia (Kochia scoparia) [17]; [20]", "value": 90}, {"measurement": "Foxtail, Giant plant response rating (0 to 100 scale, 0 is no effect, 100 is complete control)", "setting": "[18]; [19]", "value": 70}, {"measurement": "Foxtail, Giant plant response rating", "setting": "[18]; [20]", "value": 90}]}
